According to patent publication US11214803B2, “Modulators of YAP1 expression” (Ionis Pharmaceuticals, Inc., priority 2019, dated 2022):
Strand notation (5' to 3'): a small letter for the sugar, then the base; units joined by * are phosphorothioate-linked, units joined directly phosphodiester-linked; [ ] holds rarer units or linkages, { } end groups; capitals alone tell only the bases. e = 2'-O-(2-methoxyethyl) (MOE); k = constrained ethyl (cEt); [5mC] = 5-methylcytosine; d = 2'-deoxy (DNA); m = 2'-O-methyl

System: Yap1 mRNA
Assay: Antisense inhibition of human Yap1 in SNU-449 cells by modified oligonucleotides, single dose (Example 5, RTS36584)
Type: cell-based
Outline: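 Each modified oligonucleotide is applied by free uptake to SNU-449 cultures at 2,000 nM, and total RNA is harvested around 48 h later. Yap1 transcript, quantified with the RTS36584 set and corrected for RIBOGREEN RNA content, is given as % UTC. Asterisks mark sequences overlapping the amplicon.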

[1] = Table 52, Yap1 mRNA, modified oligonucleotides targeting SEQ ID NO: 1 and 2
[2] = Table 44 experiment, SNU-449 cells, 10,000 cells per well, free uptake, 2,000 nM, approximately 48 hours, RTS36584, Yap1 mRNA normalized to RIBOGREEN, relative to untreated control cells
[3] = Table 40 (separate experiment), SNU-449 cells, 10,000 cells per well, free uptake, 2,000 nM oligonucleotide, approx. 48 hours, RTS36584, normalized to RIBOGREEN, Yap1 mRNA relative to untreated control
[4] = Table 42 (separate experiment), SNU-449 cells, 10,000 cells per well, free uptake, 2,000 nM modified oligonucleotide, approximately 48 hours, RTS36584, normalized to RIBOGREEN, Yap1 mRNA relative to untreated control cells
[5] = Yap1 mRNA, percent of untreated control, modified oligonucleotides targeting SEQ ID NO: 1 and 2, Table 47
[6] = Table 43 experiment, SNU-449 cells, 10,000 cells per well, free uptake, 2,000 nM, approximately 48 hours, RTS36584, Yap1 mRNA normalized to RIBOGREEN, relative to untreated control cells
[7] = Table 45, Yap1 mRNA as percent of untreated control, SNU-449 cells, single dose
[8] = Table 46, Yap1 mRNA as percent of untreated control, SNU-449 cells, single dose
[9] = Table 49, Yap1 mRNA level relative to untreated control, modified oligonucleotides targeting SEQ ID NO.: 1 and 2
[10] = Table 39, SNU-449 cells, 10,000 cells per well, free uptake, 2,000 nM oligonucleotide, approx. 48 hours, RTS36584, normalized to RIBOGREEN, Yap1 mRNA relative to untreated control
[11] = Table 51, Yap1 mRNA remaining as percent of untreated control (UT), SNU-449 cells, single dose
[12] = Table 41, SNU-449 cells, 10,000 cells per well, free uptake, 2,000 nM modified oligonucleotide, approximately 48 hours, RTS36584, normalized to RIBOGREEN, Yap1 mRNA relative to untreated control cells

## 1200872 (kA*kG*kA*d[5mC]*dT*mA*dA*dG*dT*dA*dA*dG*dG*kT*kT*kT; antisense) [Compound 1200872]
[1]
  YAP1 (% UT): 98 % UT

## 1198511 (kA*k[5mC]*dT*d[5mC]*dT*dT*dA*dT*dA*dT*dG*eG*kT*eT*kT*eT; antisense) [Compound 1198511]
[2]
  YAP1 (% UTC): 53 % UTC

## 1198742 (kT*eT*kT*dT*dA*d[5mC]*dA*dT*dT*dA*dG*dG*eA*eA*k[5mC]*kA; antisense) [Compound 1198742]
[3]
  YAP1 (% UTC): 143 % UTC

## 1198523 (kT*kT*dT*dA*dT*dG*dT*dA*dA*dT*dA*eT*kT*eG*k[5mC]*eA; antisense) [Compound 1198523]
[2]
  YAP1 (% UTC): 93 % UTC

## 1198222 (kT*kT*dT*dT*dA*d[5mC]*dA*dT*dT*dA*dG*eG*eA*eA*k[5mC]*kA) [Compound 1198222]
[4]
  YAP1 (% UTC): 87 % UTC

## 1197176 (antisense kT*kG*kT*d[5mC]*dT*d[5mC]*dA*dT*dG*d[5mC]*d[5mC]*dT*dT*kA*kT*kA) [Compound 1197176]
[5]
  YAP1 (% UT): 17 % UT

## 1200868 (kT*kA*kA*dG*dT*mA*dA*dG*dG*dT*dT*dT*d[5mC]*k[5mC]*k[5mC]*kA; antisense) [Compound 1200868]
[1]
  YAP1 (% UT): 36 % UT

## 1198730 (kT*eA*kT*dA*dT*dT*dA*dG*dA*dG*dT*dA*eT*eG*kT*kG; antisense) [Compound 1198730]
[3]
  YAP1 (% UTC): 57 % UTC

## 1198275 (kT*kA*dA*dG*dG*dT*dT*dT*d[5mC]*d[5mC]*d[5mC]*eA*eG*eA*kT*kT; antisense) [Compound 1198275]
[6]
  YAP1 (% UTC): 52 % UTC

## 1198444 (kT*dT*dT*dA*dA*dA*dG*dT*dG*dT*dA*kT*eG*kT*e[5mC]*kA; antisense) [Compound 1198444]
[3]
  YAP1 (% UTC): 70 % UTC

## 1198920 (kA*kA*dG*d[5mC]*dA*d[5mC]*dT*dT*dT*dT*dA*k[5mC]*dA*kT*dT*kA; antisense) [Compound 1198920]
[7]
  YAP1 (% UTC): 54 % UTC

## 1198810 (antisense kT*kG*dG*dA*dA*dA*dT*dT*dG*dT*d[5mC]*kT*e[5mC]*kA*eT*kG) [Compound 1198810]
[8]
  YAP1 (% UT): 50 % UT

## 1198340 (kA*kA*k[5mC]*dT*d[5mC]*dT*dT*dA*dT*dA*dT*dG*kG*eT*kT*eT; antisense) [Compound 1198340]
[9]
  YAP1 (% UT): 123 % UT

## 1198559 (antisense kT*k[5mC]*kT*dA*dT*dA*dT*dT*dA*dG*dA*dG*kT*kA*kT*eG) [Compound 1198559]
[9]
  YAP1 (% UT): 55 % UT

## 1198332 (kT*k[5mC]*kA*dG*dA*dT*dT*dT*dA*dG*dG*dA*kT*eG*k[5mC]*eA; antisense) [Compound 1198332]
Table 48, Yap1 mRNA level relative to untreated control, modified oligonucleotides targeting SEQ ID NO.: 1 and 2
  YAP1 (% UT): 58 % UT

## 1198906 (kT*kA*dT*dA*dT*dT*dA*dG*dA*dG*dT*kA*dT*kG*dT*kG; antisense) [Compound 1198906]
[2]
  YAP1 (% UTC): 56 % UTC

## 1198880 (kA*kA*d[5mC]*dT*dT*dT*dA*dA*dA*dG*dT*kG*eT*kA*eT*kG; antisense) [Compound 1198880]
[5]
  YAP1 (% UT): 98 % UT

## 1198402 (kG*dG*dA*dA*dG*dA*dT*d[5mC]*dT*dG*dA*kA*eA*k[5mC]*eT*k[5mC]; antisense) [Compound 1198402]
[10]
  YAP1 (% UTC): 32 % UTC

## 1198727 (kA*eT*kT*dA*dG*dA*dG*dT*dA*dT*dG*dT*eG*eG*k[5mC]*kA; antisense) [Compound 1198727]
[3]
  YAP1 (% UTC): 19 % UTC

## 1198916 (kA*k[5mC]*dT*dT*dT*dT*dA*d[5mC]*dA*dT*dT*kA*dG*kG*dA*kA; antisense) [Compound 1198916]
[7]
  YAP1 (% UTC): 59 % UTC

## 1200784 (kT*kG*kT*d[5mC]*dT*mC*dA*dT*dG*d[5mC]*d[5mC]*dT*dT*kA*kT*kA; antisense) [Compound 1200784]
[11]
  YAP1 (% UT): 19 % UT

## 1198224 (kA*k[5mC]*dT*dT*dT*dT*dA*d[5mC]*dA*dT*dT*eA*eG*eG*kA*kA) [Compound 1198224]
[4]
  YAP1 (% UTC): 74 % UTC

## 1095425 (antisense kT*kG*dA*dG*dG*dT*dA*dT*dA*dA*d[5mC]*kT*eG*kG*eG*k[5mC]) [Compound 1095425]
[8]
  YAP1 (% UT): 57 % UT

## 1198431 (kA*dA*dT*dA*dT*dT*dG*d[5mC]*dA*dA*dT*k[5mC]*eT*kG*eT*k[5mC]; antisense) [Compound 1198431]
[10]
  YAP1 (% UTC): 35 % UTC

## 1198492 (antisense kG*k[5mC]*dT*dT*dT*dG*dG*dA*dA*dG*dA*eT*k[5mC]*eT*kG*eA) [Compound 1198492]
[2]
  YAP1 (% UTC): 15 % UTC

## 1198712 (kA*kG*dA*d[5mC]*dT*dA*dA*dG*dT*dA*dA*dG*kG*eT*kT*eT; antisense) [Compound 1198712]
[4]
  YAP1 (% UTC): 110 % UTC

## 1197277 (kA*k[5mC]*kT*dA*mA*dG*dT*dA*dA*dG*dG*dT*dT*kT*k[5mC]*k[5mC]) [Compound 1197277]
[11]
  YAP1 (% UT): 23 % UT

## 1198918 (kG*k[5mC]*dA*d[5mC]*dT*dT*dT*dT*dA*d[5mC]*dA*kT*dT*kA*dG*kG) [Compound 1198918]
[7]
  YAP1 (% UTC): 27 % UTC

## 1198754 (kG*e[5mC]*kT*dT*dT*dG*dG*dA*dA*dG*dA*dT*e[5mC]*eT*kG*kA; antisense) [Compound 1198754]
[3]
  YAP1 (% UTC): 23 % UTC

## 1198480 (antisense kT*kT*dT*dT*dA*d[5mC]*dA*dT*dT*dA*dG*eG*kA*eA*k[5mC]*eA) [Compound 1198480]
[6]
  YAP1 (% UTC): 75 % UTC

## 1198522 (kT*kA*dT*dG*dT*dA*dA*dT*dA*dT*dT*eG*k[5mC]*eA*kA*eT; antisense) [Compound 1198522]
[2]
  YAP1 (% UTC): 37 % UTC

## 1198306 (kA*kA*k[5mC]*dA*d[5mC]*dT*dG*dA*dG*dG*dT*dA*kT*eA*kA*e[5mC]; antisense) [Compound 1198306]
[9]
  YAP1 (% UT): 64 % UT

## 1200844 (kA*kA*k[5mC]*dT*d[5mC]*mU*dT*dA*dT*dA*dT*dG*dG*kT*kT*kT; antisense) [Compound 1200844]
[1]
  YAP1 (% UT): 132 % UT

## 1198741 (kT*eT*kA*d[5mC]*dA*dT*dT*dA*dG*dG*dA*dA*e[5mC]*eA*kA*kG; antisense) [Compound 1198741]
[3]
  YAP1 (% UTC): 60 % UTC

## 1198278 (kT*kA*dA*dG*dT*dA*dA*dG*dG*dT*dT*eT*e[5mC]*e[5mC]*k[5mC]*kA; antisense) [Compound 1198278]
[6]
  YAP1 (% UTC): 43 % UTC

## 1197196 (antisense k[5mC]*kA*kG*dA*dT*dT*dT*dA*dG*dG*dA*dT*dG*k[5mC]*kA*kT) [Compound 1197196]
[5]
  YAP1 (% UT): 27 % UT

## 1198666 (antisense kG*kT*dG*d[5mC]*dT*dT*dT*dG*dG*dA*dA*dG*kA*eT*k[5mC]*eT) [Compound 1198666]
[12]
  YAP1 (% UTC): 44 % UTC

## 1198787 (antisense kA*eG*kT*dG*dT*dA*dT*dG*dT*d[5mC]*dA*dG*eA*eA*kG*kA) [Compound 1198787]
[12]
  YAP1 (% UTC): 9 % UTC

## 1198853 (kA*kT*dT*d[5mC]*dA*dG*dA*dT*dT*dT*dA*kG*eG*kA*eT*kG; antisense) [Compound 1198853]
[8]
  YAP1 (% UT): 105 % UT

## 1197284 (kA*kG*kT*dA*mU*dG*dT*dG*dG*d[5mC]*dA*dA*dT*kA*kA*kT; antisense) [Compound 1197284]
Table 50, Yap1 mRNA remaining as percent of untreated control (UT), SNU-449 cells, single dose
  YAP1 (% UT): 35 % UT

## 1197264 (kA*kT*kT*dG*mC*dA*dA*dT*d[5mC]*dT*dG*dT*d[5mC]*kT*kG*kA) [Compound 1197264]
[11]
  YAP1 (% UT): 33 % UT

## 1198341 (k[5mC]*kA*kA*d[5mC]*dT*d[5mC]*dT*dT*dA*dT*dA*dT*kG*eG*kT*eT; antisense) [Compound 1198341]
[9]
  YAP1 (% UT): 90 % UT

## 1198364 (kT*kA*kA*dG*dT*dA*dA*dG*dG*dT*dT*dT*k[5mC]*e[5mC]*k[5mC]*eA; antisense) [Compound 1198364]
[9]
  YAP1 (% UT): 29 % UT

## 1095621 (antisense kT*kG*dA*dG*dG*dT*dA*dT*dA*dA*d[5mC]*eT*kG*eG*kG*e[5mC]) [Compound 1095621]
[2]
  YAP1 (% UTC): 22 % UTC

## 1198728 (kT*eA*kT*dT*dA*dG*dA*dG*dT*dA*dT*dG*eT*eG*kG*k[5mC]; antisense) [Compound 1198728]
[3]
  YAP1 (% UTC): 17 % UTC

## 1198209 (kT*kA*dG*dA*dG*dT*dA*dT*dG*dT*dG*eG*e[5mC]*eA*kA*kT; antisense) [Compound 1198209]
[4]
  YAP1 (% UTC): 45 % UTC

## 1198516 (kA*kT*dA*dT*dT*dG*d[5mC]*dA*dA*dT*d[5mC]*eT*kG*eT*k[5mC]*eT; antisense) [Compound 1198516]
[2]
  YAP1 (% UTC): 50 % UTC

## 1198406 (kG*d[5mC]*dT*dT*dT*dG*dG*dA*dA*dG*dA*kT*e[5mC]*kT*eG*kA; antisense) [Compound 1198406]
[10]
  YAP1 (% UTC): 17 % UTC

## 1198231 (kT*kT*dG*dG*dA*dA*dG*dA*dT*d[5mC]*dT*eG*eA*eA*kA*k[5mC]) [Compound 1198231]
[4]
  YAP1 (% UTC): 73 % UTC
